Assay results as given in PubChem BioAssay (NCI).
Values joined by “and” are separate entries in the source; they are usually repeats but may differ in a detail not shown here. Identical values can stand only once.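 Grown in 96-well plates, cells were treated for 48 hours with each compound at five concentrations. Insufficient inhibition: endpoint recorded as highest concentration tested. Abbreviation: GI50, concentration required for 50% inhibition of growth. TGI denotes the concentration required for complete inhibition of growth.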 Where a SMILES comes first, the peptide text is derived from it. [ ]: non-standard residue; d: D form. The star is where a group is joined. ξ: configuration not given here. ξD = NC(CC(=O)O)C(=O)O; Ac3c = NC1(C(=O)O)CC1; Boc = CC(C)(C)OC(=O)*; OBn = c1ccc(CO*)cc1

Assays:
Test in all cases: inhibition of tumour cell growth, NCI panel, 48 h
SF-539 CNS = tested on: SF-539 CNS
OVCAR-3 ovarian = tested on: OVCAR-3 ovarian
NCI-H226 lung = tested on: NCI-H226 lung
UO-31 renal = tested on: UO-31 renal
MDA-N = tested on: MDA-N
NCI-H460 lung = tested on: NCI-H460 lung
HOP-62 NSCLC = tested on: HOP-62 NSCLC
ACHN renal = tested on: ACHN renal
LOX IMVI melanoma = tested on: LOX IMVI melanoma
SN12C renal = tested on: SN12C renal

SMILES	TGI (SF-539 CNS)	TGI (OVCAR-3 ovarian)	TGI (NCI-H226 lung)	TGI (UO-31 renal)	TGI (MDA-N)	TGI (NCI-H460 lung)	TGI (HOP-62 NSCLC)	TGI (ACHN renal)	TGI (LOX IMVI melanoma)	TGI (SN12C renal)	GI50 (NCI-H226 lung)	GI50 (UO-31 renal)	GI50 (HOP-62 NSCLC)	GI50 (LOX IMVI melanoma)	GI50 (SF-539 CNS)	GI50 (OVCAR-3 ovarian)	GI50 (NCI-H460 lung)	GI50 (ACHN renal)	GI50 (SN12C renal)
O=C1CCC2(CC1CCSc1ccccc1)OCCO2 (stereo not drawn)	> 100 µM	> 100 µM	> 100 µM	> 100 µM	> 100 µM	> 100 µM	> 100 µM	> 100 µM	> 100 µM										
COCN1CCN=c2c1c1c3c(c4ccccc4n23)CCC1	> 100 µM	> 100 µM	> 100 µM	> 100 µM	> 100 µM	> 100 µM	> 100 µM	> 100 µM	> 100 µM	> 100 µM									
Cc1cn(CC2=NCCCN2)c(=O)[nH]c1=O			> 100 µM	> 100 µM	> 100 µM	> 100 µM	> 100 µM	> 100 µM	> 100 µM	> 100 µM									
COc1c(OC)c(O)c2c(=O)c(OC)c(-c3ccc4c(c3)OCO4)oc2c1O	> 100 µM	> 100 µM	> 100 µM	> 100 µM	> 100 µM	> 100 µM	> 100 µM	> 100 µM	> 100 µM	> 100 µM									
CN(C)CCCNc1c2ccccc2nc2cccc([N+](=O)[O-])c12	0.00757 µM and 0.0252 µM	0.0673 µM	0.0589 µM and 0.0601 µM	0.0107 µM and 0.0363 µM	0.00246 µM	0.00781 µM				0.0137 µM and 0.0343 µM	0.0196 µM	< 0.001 µM	0.0222 µM	0.019 µM					
C1#Cc2ccccc2OCCOc2ccccc2C#Cc2ccccc2OCCOc2ccccc21		39.3 µM	38.3 µM	> 100 µM	> 100 µM	> 100 µM	23.2 µM	37.9 µM	33.4 µM	> 100 µM									
COC(=O)C1(NC(=O)C(CC(=O)OCc2ccccc2)NC(=O)OC(C)(C)C)CC1 (stereo not drawn) (Boc-[ξD](OBn)-[Ac3c]-OMe)	> 100 µM	> 100 µM	> 100 µM	> 100 µM	> 100 µM	> 100 µM	> 100 µM	> 100 µM	> 100 µM	> 100 µM									
S=c1nc2[nH]c3ccc(Br)cc3c2n[nH]1	> 100 µM	> 100 µM	> 100 µM	> 100 µM	30.7 µM	> 100 µM			79.7 µM	> 100 µM									
O=C1CSC2=NCC3(NN12)c1ccccc1-c1ccccc13	> 10 µM		> 10 µM	> 10 µM	> 10 µM	> 10 µM	> 10 µM	> 10 µM	> 10 µM	> 10 µM									
CC(=O)OCc1cc(=O)n(C)c2c3c4c(cc12)c(C)cc(=O)n4CO3	3.95 µM	7.74 µM	5.5 µM	26.5 µM		5.74 µM	4.3 µM		8.6 µM	30.8 µM									
O=c1[nH]c(=O)n(COCc2ccccc2)c2ccc(Br)cc12	> 100 µM	> 100 µM	> 100 µM	> 100 µM	> 100 µM	> 100 µM		> 100 µM	> 100 µM	> 100 µM									
CC(C)[C@H]1NC(=O)[C@H]2N=C(O[C@@H]2C)[C@@H]2CCCN2C(=O)[C@H](Cc2ccccc2)NC(=O)[C@@H]2CSC(=N2)[C@@H](Cc2ccccc2)NC(=O)[C@@H]2CSC1=N2	> 100 µM	> 100 µM	> 100 µM	> 100 µM	> 100 µM		> 100 µM	> 100 µM	> 100 µM	> 100 µM									
CSc1nc(NC2OCC(O)C(O)C2O)c(N)c(=O)n1C (stereo not drawn)	> 100 µM	> 100 µM	> 100 µM	> 100 µM		> 100 µM	> 100 µM		> 100 µM	> 100 µM									
Nc1ccccc1NC(=O)CCCCCCC(=O)Nc1ccc2c(c1)/C(=C/c1ccc[nH]1)C(=O)N2	> 100 µM	> 100 µM		> 100 µM		> 100 µM		> 100 µM	> 100 µM	> 100 µM		2.21 µM		> 100 µM	1.32 µM	5.42 µM	22.4 µM	15.1 µM	4.68 µM
Cc1ccc(NC(=S)Nc2c(C)n(C)n(-c3ccccc3)c2=O)cc1	> 100 µM	> 100 µM	> 100 µM	> 100 µM	> 100 µM	> 100 µM	> 100 µM	> 100 µM	> 100 µM										
COc1cccc2c1C1(O)C2CCCC12OCCCO2 (stereo not drawn)	> 100 µM	> 100 µM	> 100 µM	> 100 µM		> 100 µM	> 100 µM	> 100 µM	> 100 µM	> 100 µM									
[N-]=[N+]=NC1CC(n2cc(COCC(F)(F)F)c(=O)[nH]c2=O)OC1CO (stereo not drawn)	> 100 µM	> 100 µM		> 100 µM		> 100 µM	> 100 µM	> 100 µM	> 100 µM	> 100 µM									
OCC(O)C1OC2CC1Nc1ccccc1N2 (stereo not drawn)	> 100 µM	> 100 µM	> 100 µM	> 100 µM		> 100 µM	> 100 µM	> 100 µM	> 100 µM	> 100 µM									
CCOC(=O)c1c2c(n(-c3ccc(OC)cc3)c1C)C(=O)C(=O)c1ccccc1-2	1.76 µM	1.34 µM	4.12 µM			5.36 µM	3.46 µM	2.36 µM	2.49 µM	3.19 µM									
O=C(NC1(C(=O)NNc2nnc(-c3ccccc3)c(-c3ccccc3)n2)C(c2ccccc2)C(c2ccccc2)=NN1c1ccccc1)c1ccccc1 (stereo not drawn)	> 100 µM	> 100 µM	> 100 µM	> 100 µM		> 100 µM	> 100 µM	> 100 µM											
C=C(CC(=O)Nc1ccc(C(=O)OC)o1)C(=O)OC	36.1 µM		66.8 µM	39.5 µM		> 100 µM	> 100 µM	34.6 µM	> 100 µM	45.2 µM									
Cc1nccn1S(=O)(=O)c1ccc(Br)cc1Br	41.4 µM	55.4 µM		68.7 µM	50.1 µM	> 100 µM		> 100 µM	> 100 µM	> 100 µM									
